# What was measured:
# [1] = test system: plasma cholesterol and triglycerides; test: Hamster feeding study, plasma cholesterol and triglycerides (Example I, Table A); assay type: in vivo, hamsters; conditions: for % Change HDL cholesterol / % Change HDL/LDL / % Change LDL cholesterol / % Change Total cholesterol / % Change Triglycerides: HMB vs control
# Experimental: A preliminary experiment was carried out using hamsters as the test animal and Na-HMB as the therapeutic agent. The experimental details and the results obtained are described as follows.
# Pregnant Female hamsters were housed and allowed to give birth. At three weeks of age, litters were subdivided into pairs within a sex. The pairs of hamsters were then assigned randomly a purified diet based on casein and cornstarch with either contained 0.1% NaCl (control) or one containing 0.1% Na-HMB (HMB). They were maintained on this diet for 6 weeks at which time they were killed by decapitation and blood collected into EDTA containing tubes. Blood was separated by centrifugation and plasma collected. The unfrozen plasma was treated with an LDL precipitating agent, centrifuged and the supernatant collected. The whole plasma and supernatant were assayed for cholesterol by an enzymatic method. Plasma cholesterol estimated total cholesterol while the supernatant represented HDL cholesterol. LDL cholesterol was estimated by the formula: LDL-Cholesterol=(Total cholesterol)-(HDL cholesterol)-(triglycerides X 0.2). Total triglycerides in plasma were estimated by an enzymatic assay.
# aorta = test: Pig feeding study, aorta streaking (pre-atherosclerotic lesions) (Example III, Table C); assay type: in vivo, pigs; conditions: for Aorta Streaking: 0 least severe to 3.2 most severe, control 1.87
# Experimental: A further large mammal study was carried out with pigs. Pigs comprise test animals which are more similar in certain respects to humans than ruminants.
# Control: 60 g. of calcium
# The pigs were housed in pens of two animals each and were allowed ad libitum access to food and water. Pigs were approximately 160 lbs. at the start of the experiment and were 240 lbs. at the end. All pigs were castrate males. At day 28 and day 43 of the experiment blood was collected from the anterior vena cava by venipuncture. Blood was collected into EDTA containing tubes, centrifuged and frozen until analyzed. At approximately 100 days of the experiment half of the animals (32) were slaughtered, and at 120 days the remaining 32 animals were slaughtered. At the time of slaughter the abdominal aorta was dissected out and external fat removed. The aorta was then split lengthwise and 1/2 fixed in formaldehyde for 48 hours. At this time aortas were removed, stretched over a 6 inch stick, washed in ethanol and stained with a lipid stain for 2 hours. After a 1 hour wash aortas were blotted and examined. All the aortas from a group were laid out on a white bench and arranged in order from least sever to most sever. The least sever had no dark red streaks on the aorta or around the small vertebral vessels leaving the aorta. The most sever lesions had multiple streaks in the middle of the aorta and dark red deposits in turbulent areas such as the branching of vessels from the aorta. The ordered aortas were then assigned a consecutive decimal number. The first (least severe) was assigned 0 and the most severe was assigned 3.2 Plasma cholesterol and triglycerides were measured by an enzyme-colorimetric assay (Sigma).
# statistical analysis was accomplished by the general linear model procedure of the Statistical Analysis System (SAS). The model included the main effects of treatment and pen number. T-tests were conducted from the ANOVA standard error, to compare the HMB treatments to the control. […] It appeared that HMB can partially prevent the formation of pre-atherosclerotic lesions. No effect of KIC was noted relative to any parameter.
# [2] = Controlled double-blind human study, body weight, body fat and resting metabolic rate (Example IV, Table D); assay type: in vivo, humans
# Experimental: In view of the findings of the foregoing examples, a human study was carried out.
# In a controlled double-blind study, the effects of feeding HMB on loss of urinary nitrogen, blood cholesterol and immune function in normal humans were tested. This study also measured blood components that reflect liver, kidney and tissue metabolism. In addition further measurements of nitrogen metabolism and immune function were implemented. All measurements were made in a controlled dietary situation and under blinded conditions. Normal male subjects were used who had been screened for normalcy. Ca-HMB was administered in 250 mg capsules. The subjects were instructed to take the capsules in 4 equal doses daily (with meals and at bed time). The subject ate all their meals under controlled conditions. Normal diets were used, and the amount of the diets was controlled to maintain equal and substantially constant nitrogen intake. The subjects had blood drawn before the morning meal or before they took the morning HMB dose. Each subject was studied twice: once with a placebo and once with HMB.
# [3] = test system: acetate incorporation into cholesterol by the rat liver; conditions: 0.5 g/kg body weight for 2 and 4 days; cited from earlier work
# [4] = females, 0.1% Na-HMB diet, 6 weeks
# [5] = males, 0.1% Na-HMB diet, 6 weeks
# [6] = HMB change net of placebo-group change
smiles,measurement,setting,value
"CC(C)(O)CC(=O)O [HMB, β-hydroxy-β-methylbutyric acid]",HDL cholesterol,"[1]; females, 0.1% Na-HMB diet, 6 weeks, control 125",132 mg %
same,Total cholesterol,"[1]; females, 0.1% Na-HMB diet, 6 weeks, control 237",228 mg %
same,Triglycerides,"[1]; females, 0.1% Na-HMB diet, 6 weeks, control 240",212 mg %
same,HDL/LDL,"[1]; females, 0.1% Na-HMB diet, 6 weeks, control .51",.41
same,LDL cholesterol,"[1]; females, 0.1% Na-HMB diet, 6 weeks, estimated by formula, control 64",53 mg %
same,% Change HDL cholesterol,[1]; [4],+5%
same,% Change HDL/LDL,[1]; [4],-20%
same,% Change LDL cholesterol,[1]; [4],-17%
same,% Change Total cholesterol,[1]; [4],-4%
same,% Change Triglycerides,[1]; [4],-11%
same,HDL cholesterol,[1]; hamsters,a trend to increase HDL cholesterol
same,LDL cholesterol,[1]; hamsters,markedly lower LDL cholesterol
same,ratio of LDL/HDL,[1]; hamsters,positively affected
same,HDL cholesterol,"[1]; males, 0.1% Na-HMB diet, 6 weeks, control 111",118 mg %
same,Total cholesterol,"[1]; males, 0.1% Na-HMB diet, 6 weeks, control 217",208 mg %
same,Triglycerides,"[1]; males, 0.1% Na-HMB diet, 6 weeks, control 232",226 mg %
same,HDL/LDL,"[1]; males, 0.1% Na-HMB diet, 6 weeks, control .53",.38
same,LDL cholesterol,"[1]; males, 0.1% Na-HMB diet, 6 weeks, estimated by formula, control 59",45 mg %
same,% Change HDL cholesterol,[1]; [5],+5%
same,% Change HDL/LDL,[1]; [5],-28%
same,% Change LDL cholesterol,[1]; [5],-24%
same,% Change Total cholesterol,[1]; [5],-4%
same,% Change Triglycerides,[1]; [5],-2%
same,deposits of fat in the aorta,aorta; HMB-fed pigs,lower deposits of fat in the aorta
same,Aorta Streaking,"aorta; dietary .01%, HMB C vs. .01% p .12",1.23
same,Aorta Streaking,"aorta; dietary .05%, HMB p .06, KIC ns",1.18
same,"% Net Effect HMB, % Body fat",[2]; [6],-9%
same,"% Net Effect HMB, Resting metabolic rate",[2]; [6],0%
same,"% Net Effect HMB, Weight",[2]; [6],1.4%
same,Body weight,[2]; HMB treatment,did not change
same,body fat,[2]; HMB treatment,did not change
same,resting metabolic rate,[2]; HMB treatment,did not change
same,% Change Trt. % Body fat,[2]; control to HMB treatment,-12%
same,% Change Trt. Resting metabolic rate,[2]; control to HMB treatment,4%
same,% Change Trt. Weight,[2]; control to HMB treatment,1.4%
same,% Body fat (skin fold),"[2]; treated group on HMB, Ca HMB 1.0 grams/24 hours, pre-treatment control 12.5",11.0%
same,resting metabolic rate,"[2]; treated group on HMB, Ca HMB 1.0 grams/24 hours, pre-treatment control 74.8",77.8 KCal/mw
same,Weight,"[2]; treated group on HMB, Ca HMB 1.0 grams/24 hours, pre-treatment control 176",179 lbs.
same,rate of acetate incorporation into cholesterol by the rat liver,[3],not significantly lowered

# Source: patent US5360613A, “Method of reducing blood levels of total cholesterol and low-density lipoprotein cholesterol” (Iowa State University Research Foundation, Inc., priority 1993, dated 1994)
